Test results: ChEMBL document CHEMBL2311446, “Hybrid fluorescent conjugates of COX-2 inhibitors: search for a COX-2 isozyme imaging cancer biomarker” (Bioorg Med Chem Lett, 2013); call rule not given here

Key:
[1] = target: T1, Prostaglandin G/H synthase 1 (Ovis aries, UniProt P05979); assay: Inhibition of ovine COX1
T1 sequence (P05979 whole entry): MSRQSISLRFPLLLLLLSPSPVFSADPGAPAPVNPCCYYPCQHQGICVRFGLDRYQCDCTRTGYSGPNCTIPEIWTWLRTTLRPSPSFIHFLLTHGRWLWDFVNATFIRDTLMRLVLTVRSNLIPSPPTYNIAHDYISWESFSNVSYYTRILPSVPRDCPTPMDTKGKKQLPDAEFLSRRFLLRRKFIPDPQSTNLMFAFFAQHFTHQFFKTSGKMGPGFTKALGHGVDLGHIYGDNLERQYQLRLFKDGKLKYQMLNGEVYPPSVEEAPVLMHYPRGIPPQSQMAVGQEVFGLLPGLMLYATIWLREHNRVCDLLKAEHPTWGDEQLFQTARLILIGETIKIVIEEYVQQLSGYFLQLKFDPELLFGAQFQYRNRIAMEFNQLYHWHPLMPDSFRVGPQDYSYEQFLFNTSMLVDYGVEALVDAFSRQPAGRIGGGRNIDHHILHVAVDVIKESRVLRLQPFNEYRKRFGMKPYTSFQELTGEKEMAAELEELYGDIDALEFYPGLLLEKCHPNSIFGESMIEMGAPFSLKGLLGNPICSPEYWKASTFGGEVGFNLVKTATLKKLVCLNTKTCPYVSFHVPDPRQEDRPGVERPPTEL

[2] = Drug uptake in human HCA-7 cells overexpressing COX2 assessed as fluorescence at 10 uM after 1 hr by confocal laser scanning microscopic analysis; assay type: ADME, cell-based; details: hca-7, 1 h

SMILES | IC50 [1] [µM] | Drug uptake [2]
CC(C)Cc1ccc(C(C)C(=O)n2c3ccccc3c(=O)c3ccccc32)cc1 (stereo unspecified) | 51.5 | –
CC(C)Cc1ccc(C(C)C(=O)OCCNS(=O)(=O)c2cccc3c(N(C)C)cccc23)cc1 (stereo unspecified) | > 100 | –
COc1ccc2cc([C@H](C)C(=O)n3c4ccccc4c(=O)c4ccccc43)ccc2c1 | 18 | –
Cc1ccc(-c2cc(C(F)(F)F)nn2-c2ccc(S(=O)(=O)NCCNS(=O)(=O)c3cccc4c(N(C)C)cccc34)cc2)cc1 | > 100 | –
CC(=O)Oc1ccccc1C(=O)OCCn1c2ccccc2c(=O)c2ccccc21 | 39.4 | –
CC(C)Cc1ccc(C(C)C(=O)OCCn2c3ccccc3c(=O)c3ccccc32)cc1 (stereo unspecified) | 74.1 | –
CCN(CC)c1ccc2c(c1)Oc1cc(N(CC)CC)ccc1C21c2ccccc2C(=O)N1CCNS(=O)(=O)c1ccc(-n2nc(C(F)(F)F)cc2-c2ccc(C)cc2)cc1 | > 100 | –
O=c1c2ccccc2n(CCOS(=O)(=O)c2ccc(C(F)(F)F)cc2)c2ccccc12 | 88.1 | –
COc1ccc2cc([C@H](C)C(=O)OCCn3c4ccccc4c(=O)c4ccccc43)ccc2c1 | 30.3 | –
CCN(CC)c1ccc2c(-c3ccccc3C(=O)O)c3ccc(=[N+](CC)CC)cc-3oc2c1 [RHODAMINE B] | – | Not Active
CN(C)c1cccc2c(S(=O)(=O)NCCNS(=O)(=O)c3ccc(C4=C(c5ccc(Cl)cc5)C(=O)OC4)cc3)cccc12 | > 100 | –
